Test results published in patent publication EP0233461B2, “4,5,6-Substituted-2-pyrimidinamines” (AMERICAN CYANAMID COMPANY, priority 1986, dated 1987).
Where a name gives a salt, the structure may show the parent alone.

tested on: human basophils; assay: Inhibition of histamine release from immunologically stimulated human basophils; assay type: cell-based; conditions: Homo sapiens, concentration causing 50% inhibition of histamine release, by linear regression; active if IC50 ≦ 48 µM; read-out: IC50
Outline: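 Leukocytes from sedimented human blood, washed in Tris-A and resuspended in Tris-ACM, were challenged with anti-IgE or antigen, with or without compound, for 60 min at 37 °C. Released histamine was measured fluorometrically after OPT derivatization and expressed as percent of total (perchloric acid lysate), corrected for spontaneous release.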

Point of comparison: `CN(C)CCOc1ccc(Nc2nccc(-c3cccnc3)n2)cc1` [N-[4-[2-(Dimethylamino)ethoxy]phenyl]-4-(3-pyridinyl)-2-pyrimidinamine], IC50 500 nM. Against it:
- c1ccc(-c2ccnc(Nc3cccc(-n4ccnc4)c3)n2)nc1 [N-[3-(1H-Imidazol-1-yl)phenyl]-4-(2-pyridinyl)-2-pyrimidinamine] — 5-fold lower, 100 nM
- c1cc(Nc2nccc(-c3cccs3)n2)cc(-n2ccnc2)c1 [N-[3-(1H-Imidazol-1-yl)phenyl]-4-(2-thienyl)-2-pyrimidinamine] — 2.5-fold lower, 200 nM
- c1cncc(-c2ccnc(Nc3cccc(-n4ccnc4)c3)n2)c1 [N-[3-(1H-Imidazol-1-yl)phenyl]-4-(3-pyridinyl)-2-pyrimidinamine] — 5-fold lower, 100 nM
- c1cc(Nc2nccc(-c3ccncc3)n2)cc(-n2ccnc2)c1 [N-[3-(1H-Imidazol-1-yl)phenyl]-4-(4-pyridinyl)-2-pyrimidinamine] — within 1.5-fold, 400 nM
- CCN(CC)CCOc1cccc(Nc2nccc(-c3ccco3)n2)c1 [N-[3-[2-(Diethylamino)ethoxy]phen-yl]-4-(2-furanyl)-2-pyrimidinamine] — 2.6-fold higher, 1300 nM
- CCN(CC)CCOc1cccc(Nc2nccc(-c3cccs3)n2)c1 [N-[3-[2-(Diethylamino)ethoxy]phen-yl]-4-(2-thienyl)-2-pyrimidinamine] — within 1.5-fold, 600 nM
- CCN(CC)CCOc1cccc(Nc2nccc(-c3cccnc3)n2)c1 [N-[3-[2-(Diethylamino)ethoxy]phenyl]-4-(3-pyridinyl)-2-pyrimidinamine] — 5.6-fold higher, 2800 nM
- CCN(CC)CCOc1cccc(Nc2nccc(-c3ccncc3)n2)c1 [N-[3-[2-(Diethylamino)ethoxy]phenyl]-4-(4-pyridinyl)-2-pyrimidinamine] — within 1.5-fold, 700 nM
- CC(=O)Nc1cccc(Nc2nccc(-c3ccccn3)n2)c1 [N-[3-[[4-(2-Pyridinyl)-2-pyrimidinyl]amino]-phenyl]acetamide] — 1.7-fold lower, 300 nM
- CC(=O)Nc1cccc(Nc2nccc(-c3cccnc3)n2)c1 [N-[3-[[4-(3-Pyridinyl)-2-pyrimidinyl]amino]-phenyl]acetamide] — 10-fold higher, 5000 nM
- CC(=O)Nc1cccc(Nc2nccc(-c3ccncc3)n2)c1 [N-[3-[[4-(4-Pyridinyl)-2-pyrimidinyl]amino]-phenyl]acetamide] — 4.2-fold higher, 2100 nM
- CC(C)(C)c1ccc(Nc2nccc(-c3cccs3)n2)cc1 [N-[4-(1,1-Dimethylethyl)phenyl]-4-(2-thienyl)-2-pyrimidinamine] — 9.2-fold higher, 4600 nM
- CC(C)(C)c1ccc(Nc2nccc(-c3cccnc3)n2)cc1 [N-[4-(1,1-Dimethylethyl)phenyl]-4-(3-pyridinyl)-2-pyrimidinamine] — within 1.5-fold, 700 nM
- CC(C)c1ccc(Nc2nccc(-c3cccnc3)n2)cc1 [N-[4-(1-Methylethyl)phenyl]-4-(3-pyridinyl)-2-pyrimidinamine] — 2.2-fold higher, 1100 nM
- FC(F)(F)c1cc(Nc2nccc(-c3ccccn3)n2)ccc1-n1ccnc1 [N-[4-(1H-Imidazol-1-yl)-3-(tri-fluoromethyl)phenyl]-4-(2-pyridin-yl)-2-pyrimidinamine] — 3.2-fold higher, 1600 nM
- FC(F)(F)c1cc(Nc2nccc(-c3ccncc3)n2)ccc1-n1ccnc1 [N-[4-(1H-Imidazol-1-yl)-3-(trifluoromethyl)-phenyl]-4-(4-pyridinyl)-2-pyrimidinamine] — within 1.5-fold, 400 nM
- c1ccc(-c2ccnc(Nc3ccc(-n4ccnc4)cc3)n2)nc1 [N-[4-(1H-Imidazol-1-yl)phenyl]-4-(2-pyridinyl)-2-pyrimidinamine] — 3.6-fold higher, 1800 nM
- c1cncc(-c2ccnc(Nc3ccc(-n4ccnc4)cc3)n2)c1 [N-[4-(1H-Imidazol-1-yl)phenyl]-4-(3-pyridinyl)-2-pyrimidinamine] — 2.6-fold higher, 1300 nM
- c1cc(-c2ccnc(Nc3ccc(-n4ccnc4)cc3)n2)ccn1 [N-[4-(1H-Imidazol-1-yl)phenyl]-4-(4-pyridinyl)-2-pyrimidinamine] — 25-fold higher, 12300 nM
- C=CCOc1ccc(Nc2nccc(-c3cccnc3)n2)cc1 [N-[4-(2-Propenyloxy)phenyl]-4-(3-pyridinyl)-2-pyrimidinamine] — 1.6-fold higher, 800 nM
- Nc1cccc(Nc2nccc(-c3ccccn3)n2)c1 [N-[4-(2-Pyridinyl)-2-pyrimidinyl]-1,3-benzenediamine] — 2.5-fold lower, 200 nM
- Nc1ccc(Nc2nccc(-c3ccccn3)n2)cc1 [N-[4-(2-Pyridinyl)-2-pyrimidinyl]-1,4-benzenediamine, dihydrochloride] — 2-fold higher, 1000 nM
- Nc1cccc(Nc2nccc(-c3cccnc3)n2)c1 [N-[4-(3-Pyridinyl)-2-pyrimidinyl]-1,3-benzenediamine, dihydrochloride] — within 1.5-fold, 400 nM
- CN1CCN(c2ccc(Nc3nccc(-c4ccccn4)n3)cc2)CC1 [N-[4-(4-Methyl-1-piperazinyl)phenyl]-4-(2-pyridinyl)-2-pyrimidinamine] — not separable, < 24000 nM
- CN1CCN(c2ccc(Nc3nccc(-c4cccs4)n3)cc2)CC1 [N-[4-(4-Methyl-1-piperazinyl)phenyl]-4-(2-thienyl)-2-pyrimidinamine] — not separable, < 24000 nM
- CN1CCN(c2ccc(Nc3nccc(-c4cccnc4)n3)cc2)CC1 [N-[4-(4-Methyl-1-piperazinyl)phenyl]-4-(3-pyridinyl)-2-pyrimidinamine] — 3-fold higher, 1500 nM
- CN1CCN(c2ccc(Nc3nccc(-c4ccncc4)n3)cc2)CC1 [N-[4-(4-Methyl-1-piperazinyl)phenyl]-4-(4-pyridinyl)-2-pyrimidinamine] — within 1.5-fold, 600 nM
- Nc1cccc(Nc2nccc(-c3ccncc3)n2)c1 [N-[4-(4-Pyridinyl)-2-pyrimidinyl]-1,3-benzenediamine] — 2-fold higher, 1000 nM
- Nc1ccc(Nc2nccc(-c3ccncc3)n2)cc1 [N-[4-(4-Pyridinyl)-2-pyrimidinyl]-1,4-benzenediamine, hydrochloride] — 6-fold higher, 3000 nM
- CC(N)c1ccc(Nc2nccc(-c3cccnc3)n2)cc1 (stereo not drawn) [N-[4-[1-Aminoethyl)phenyl]-4-(3-pyridinyl)-2-pyrimidinamine, trihydrochloride] — 1.6-fold higher, 800 nM
- CCN(CC)CCOc1ccc(Nc2nccc(-c3ccncc3)n2)cc1 [N-[4-[2-(Diethylamino)ethoxy]phenyl]-4-(4-pyridinyl)-2-pyrimidinamine] — 2.5-fold lower, 200 nM
- CN(C)CCOc1ccc(Nc2nccc(-c3ccncc3)n2)cc1 [N-[4-[2-(Dimethylamino)ethoxy]phenyl]-4-(4-pyridinyl)-2-pyrimidinamine] — 3-fold higher, 1500 nM
- CN(C)CCOc1ccc(N(CCN(C)C)c2nccc(-c3ccncc3)n2)cc1 [N-[4-[2-(Dimethylamino)ethoxy]phenyl]-N',N'-dimethyl-N-[4-(4-pyridinyl)-2-pyrimidinyl]-1,2-ethanediamine] — 18-fold higher, 9100 nM
- CCN(CC)CCOc1ccc(Nc2nccc(-c3cccnc3)n2)cc1 [N-[4-[2-Diethylamino)ethaxy]phenyl]-4-(3-pyridinyl)-2-pyrimidinamine] — 2.5-fold lower, 200 nM
- CC(C)N(CCOc1ccc(Nc2nccc(-c3cccnc3)n2)cc1)C(C)C [N-[4-[2-[bis(1-Methylethyl)amino]ethoxy]phenyl]-4-(3-pyridinyl)-2-pyrimidinamine] — 9.2-fold higher, 4600 nM
- CN(C)CCCOc1ccc(Nc2nccc(-c3cccnc3)n2)cc1 [N-[4-[3-(Dimethylamino)propoxy]phenyl]-4-(3-pyridinyl)-2-pyrimidinamine] — the same, 500 nM
- CN(C)CCCOc1ccc(Nc2nccc(-c3ccncc3)n2)cc1 [N-[4-[3-(Dimethylamino)propoxy]phenyl]-4-(4-pyridinyl)-2-pyrimidinamine] — 2.6-fold higher, 1300 nM
- CC(=O)Nc1ccc(Nc2nccc(-c3ccco3)n2)cc1 [N-[4-[[4-(2-Furanyl)-2-pyrimidin-yl]amino]phenyl]acetamide] — within 1.5-fold, 700 nM
- CC(=O)Nc1ccc(Nc2nccc(-c3ccccn3)n2)cc1 [N-[4-[[4-(2-Pyridinyl)-2-pyrimidinyl]amino]-phenyl]acetamide] — 3-fold higher, 1500 nM
- CC(=O)Nc1ccc(Nc2nccc(-c3cccs3)n2)cc1 [N-[4-[[4-(2-Thienyl)-2-pyrimidinyl]amino]-phenyl]acetamide] — 2.5-fold lower, 200 nM
- CC(=O)Nc1ccc(Nc2nccc(-c3cccnc3)n2)cc1 [N-[4-[[4-(3-Pyridinyl)-2-pyrimidin-yl]amino]phenyl]acetamide] — 7.2-fold higher, 3600 nM
- CC(=O)Nc1ccc(Nc2nccc(-c3ccncc3)n2)cc1 [N-[4-[[4-(4-Pyridinyl)-2-pyrimidinyl]amino]-phenyl]acetamide] — 11-fold higher, 5300 nM
- CC(=O)Nc1ccc(Nc2nccc(-c3ccc(C)s3)n2)cc1 [N-[4-[[4-(5-Methyl-2-thienyl)-2-pyrimidinyl]amino]phenyl]acetamide] — 1.7-fold lower, 300 nM
- Cc1ccc(CNc2nccc(-c3ccccn3)n2)cc1C [N-[(3,4-Dimethylphenyl)methyl]-4-(2-pyridinyl)-2-pyrimidinamine] — 80-fold higher, 39800 nM
- CCOC(=O)C(=O)N(c1ccccc1)c1nccc(-c2ccncc2)n1 [Oxo[phenyl[4-(4-pyridinyl)-2-pyrimidinyl]amino]acetic acid, ethyl ester] — 4.2-fold higher, 2100 nM
- CCOC(=O)COc1ccc(Nc2nccc(-c3ccncc3)n2)cc1 [[4-[[4-Pyridinyl)-2-pyrimidinyl]amino]phenoxy]acetic acid, ethyl ester] — 12-fold higher, 5800 nM
- CC(O)c1ccc(Nc2nccc(-c3cccnc3)n2)cc1 (stereo not drawn) [α-Methyl-4-[[4-(3-pyridinyl)-2-pyrimidinyl]amino]benzenemethanol] — 9-fold higher, 4500 nM

same assay, conditions: concentration causing 50% inhibition of histamine release, by linear regression; active if IC50 ≦ 48 µM; read-out: IC50

Point of comparison: `Nc1ccc(Nc2nccc(-c3ccncc3)n2)cc1` [N-[4-(4-Pyridinyl)-2-pyrimidinyl)-1,4-benzenediamine], IC50 2400 nM. Against it:
- CN(C)c1ccc(Nc2nccc(-c3ccccn3)n2)cc1 [N-[4-(Dimethylamino)phenyl]-4-(2-pyridinyl)-2-pyrimidinamine] — within 1.5-fold, 2700 nM
- CN(C)c1ccc(Nc2nccc(-c3ccncc3)n2)cc1 [N-[4-(Dimethylamino)phenyl]-4-(4-pyridinyl)-2-pyrimidinamine] — 1.6-fold higher, 3800 nM
